Test results taken from ChEMBL document CHEMBL4507291 (2021).

Columns and labels:
[1] = target: Epithelial discoidin domain-containing receptor 1 (Homo sapiens) (UniProt Q08345)
[2] = target: BMP-2-inducible protein kinase (Homo sapiens) (UniProt Q9NSY1)
[3] = target: Calcium/calmodulin-dependent protein kinase type II subunit alpha (Homo sapiens) (UniProt Q9UQM7)
[4] = target: Microtubule-associated serine/threonine-protein kinase 1 (Homo sapiens) (UniProt Q9Y2H9)
[5] = target: Serine/threonine-protein kinase PAK 5 (Homo sapiens) (UniProt Q9P286)
[6] = target: Tyrosine-protein kinase Fes/Fps (Homo sapiens) (UniProt P07332)
[7] = test system: Tyrosine-protein kinase ABL1 (Homo sapiens), P00519 [F317I]
[8] = target: Serine/threonine-protein kinase WNK4 (Homo sapiens) (UniProt Q96J92)
[9] = target: Serine/threonine-protein kinase mTOR (Homo sapiens) (UniProt P42345)
[10] = test system: Epidermal growth factor receptor (Homo sapiens), P00533 [L858R,T790M]
[11] = test system: Epidermal growth factor receptor (Homo sapiens), P00533 [UNDEFINED MUTATION]
[12] = target: T1, G protein-coupled receptor kinase 3 (Homo sapiens) (UniProt P35626)
T1 sequence (whole entry): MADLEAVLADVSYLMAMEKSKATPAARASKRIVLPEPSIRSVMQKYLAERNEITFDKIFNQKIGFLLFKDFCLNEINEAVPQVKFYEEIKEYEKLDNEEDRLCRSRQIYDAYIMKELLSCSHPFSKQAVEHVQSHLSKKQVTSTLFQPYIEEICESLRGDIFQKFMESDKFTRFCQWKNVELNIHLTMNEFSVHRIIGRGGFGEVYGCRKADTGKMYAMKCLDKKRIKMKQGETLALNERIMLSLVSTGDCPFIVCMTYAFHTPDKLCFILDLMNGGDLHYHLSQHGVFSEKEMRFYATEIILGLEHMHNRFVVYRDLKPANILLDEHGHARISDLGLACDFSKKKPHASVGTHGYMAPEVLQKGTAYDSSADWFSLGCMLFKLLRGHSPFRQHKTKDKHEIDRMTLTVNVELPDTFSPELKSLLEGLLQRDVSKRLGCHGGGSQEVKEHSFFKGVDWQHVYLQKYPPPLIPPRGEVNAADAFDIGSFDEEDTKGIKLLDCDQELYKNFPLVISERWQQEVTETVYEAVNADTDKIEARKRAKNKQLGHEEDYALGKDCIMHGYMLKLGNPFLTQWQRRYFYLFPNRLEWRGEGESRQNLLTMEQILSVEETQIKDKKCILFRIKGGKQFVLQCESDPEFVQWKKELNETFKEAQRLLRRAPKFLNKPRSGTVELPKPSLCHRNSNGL

[13] = target: Mitogen-activated protein kinase 7 (Homo sapiens) (UniProt Q13164)
[14] = target: Serine/threonine-protein kinase Chk2 (Homo sapiens) (UniProt O96017)
[15] = test system: Epidermal growth factor receptor (Homo sapiens), P00533 [UNDEFINED MUTATION]; remark: listed apart in the source
[16] = target: Dual specificity mitogen-activated protein kinase kinase 4 (Homo sapiens) (UniProt P45985)
[17] = target: Phosphorylase b kinase regulatory subunit alpha, liver isoform (Homo sapiens) (UniProt P46019)
[18] = test system: Phosphatidylinositol 4,5-bisphosphate 3-kinase catalytic subunit alpha isoform (Homo sapiens), P42336 [I800L]
[19] = target: Phosphatidylinositol 4-phosphate 5-kinase type-1 alpha (Homo sapiens) (UniProt Q99755)
[20] = target: Mitogen-activated protein kinase kinase kinase 1 (Homo sapiens) (UniProt Q13233)
[21] = target: Dual specificity mitogen-activated protein kinase kinase 5 (Homo sapiens) (UniProt Q13163)
[22] = target: Ribosomal protein S6 kinase alpha-1 (Homo sapiens) (UniProt Q15418)
[23] = target: Platelet-derived growth factor receptor beta (Homo sapiens) (UniProt P09619)
[24] = target: D(4) dopamine receptor (Homo sapiens) (UniProt P21917); conditions: Compound concentration 10.0 uM
[25] = target: T2, Mitogen-activated protein kinase kinase kinase 3 (Homo sapiens) (UniProt Q99759)
T2 sequence (whole entry): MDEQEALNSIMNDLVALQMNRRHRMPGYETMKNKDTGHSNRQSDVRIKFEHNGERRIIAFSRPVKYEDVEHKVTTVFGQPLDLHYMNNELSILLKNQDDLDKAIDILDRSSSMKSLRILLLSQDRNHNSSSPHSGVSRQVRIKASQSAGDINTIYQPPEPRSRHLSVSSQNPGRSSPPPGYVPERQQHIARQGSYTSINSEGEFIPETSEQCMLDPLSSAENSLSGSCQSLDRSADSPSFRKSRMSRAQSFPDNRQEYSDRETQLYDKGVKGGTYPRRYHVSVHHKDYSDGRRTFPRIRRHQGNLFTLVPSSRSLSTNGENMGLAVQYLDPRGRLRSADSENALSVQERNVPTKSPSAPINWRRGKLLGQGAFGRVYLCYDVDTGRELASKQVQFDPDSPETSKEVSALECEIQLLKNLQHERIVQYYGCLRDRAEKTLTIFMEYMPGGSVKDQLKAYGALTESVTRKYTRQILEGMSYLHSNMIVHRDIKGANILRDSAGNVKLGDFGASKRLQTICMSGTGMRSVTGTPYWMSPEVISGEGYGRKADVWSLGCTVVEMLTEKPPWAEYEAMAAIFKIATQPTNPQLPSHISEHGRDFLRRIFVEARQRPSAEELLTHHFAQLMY

[26] = test system: Proto-oncogene tyrosine-protein kinase receptor Ret (Homo sapiens), P07949 [M918T]
[27] = Compound concentration 100.0 nM
[28] = Compound concentration 1000.0 nM

Mitogen-activated protein kinase kinase kinase 1 (Homo sapiens), sequence (Q13233 whole entry): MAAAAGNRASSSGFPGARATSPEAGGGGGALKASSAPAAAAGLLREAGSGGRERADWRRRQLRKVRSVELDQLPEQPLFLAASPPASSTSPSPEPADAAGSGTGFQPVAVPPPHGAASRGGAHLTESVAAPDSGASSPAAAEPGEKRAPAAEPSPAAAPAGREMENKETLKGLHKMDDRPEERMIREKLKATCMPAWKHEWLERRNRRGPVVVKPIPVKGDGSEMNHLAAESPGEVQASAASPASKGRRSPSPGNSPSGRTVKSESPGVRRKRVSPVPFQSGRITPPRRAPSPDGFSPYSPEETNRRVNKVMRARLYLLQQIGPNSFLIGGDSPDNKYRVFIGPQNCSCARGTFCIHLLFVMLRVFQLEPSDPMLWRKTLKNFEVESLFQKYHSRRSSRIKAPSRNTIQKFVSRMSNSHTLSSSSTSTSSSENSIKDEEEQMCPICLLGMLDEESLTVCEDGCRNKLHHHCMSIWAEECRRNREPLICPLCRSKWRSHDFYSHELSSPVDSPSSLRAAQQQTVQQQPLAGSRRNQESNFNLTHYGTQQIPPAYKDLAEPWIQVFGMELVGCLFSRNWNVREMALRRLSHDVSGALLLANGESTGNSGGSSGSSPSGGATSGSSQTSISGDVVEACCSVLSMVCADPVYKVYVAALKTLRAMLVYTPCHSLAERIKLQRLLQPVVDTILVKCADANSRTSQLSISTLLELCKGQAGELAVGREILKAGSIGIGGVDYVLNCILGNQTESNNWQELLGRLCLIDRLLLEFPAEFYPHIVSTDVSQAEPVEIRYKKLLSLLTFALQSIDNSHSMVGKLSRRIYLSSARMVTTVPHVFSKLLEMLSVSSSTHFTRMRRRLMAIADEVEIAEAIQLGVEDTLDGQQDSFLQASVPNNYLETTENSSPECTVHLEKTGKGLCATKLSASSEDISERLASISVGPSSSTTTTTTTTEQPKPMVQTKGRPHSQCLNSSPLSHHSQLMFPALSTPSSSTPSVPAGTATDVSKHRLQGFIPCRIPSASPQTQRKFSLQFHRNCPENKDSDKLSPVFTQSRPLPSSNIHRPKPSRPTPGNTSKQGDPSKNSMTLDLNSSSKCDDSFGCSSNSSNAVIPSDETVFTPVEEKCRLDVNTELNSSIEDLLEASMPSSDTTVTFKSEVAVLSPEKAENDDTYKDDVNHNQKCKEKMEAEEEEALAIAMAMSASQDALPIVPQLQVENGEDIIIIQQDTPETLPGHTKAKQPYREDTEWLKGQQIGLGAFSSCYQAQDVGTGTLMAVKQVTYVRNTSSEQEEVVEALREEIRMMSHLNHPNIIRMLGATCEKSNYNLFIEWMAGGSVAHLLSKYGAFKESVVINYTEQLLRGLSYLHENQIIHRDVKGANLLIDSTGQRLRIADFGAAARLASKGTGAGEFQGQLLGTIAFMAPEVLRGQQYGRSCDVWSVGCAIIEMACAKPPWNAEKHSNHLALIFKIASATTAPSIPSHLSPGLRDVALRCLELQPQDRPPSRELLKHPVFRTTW
Mitogen-activated protein kinase 7 (Homo sapiens), sequence (Q13164 2-816 limits assumed): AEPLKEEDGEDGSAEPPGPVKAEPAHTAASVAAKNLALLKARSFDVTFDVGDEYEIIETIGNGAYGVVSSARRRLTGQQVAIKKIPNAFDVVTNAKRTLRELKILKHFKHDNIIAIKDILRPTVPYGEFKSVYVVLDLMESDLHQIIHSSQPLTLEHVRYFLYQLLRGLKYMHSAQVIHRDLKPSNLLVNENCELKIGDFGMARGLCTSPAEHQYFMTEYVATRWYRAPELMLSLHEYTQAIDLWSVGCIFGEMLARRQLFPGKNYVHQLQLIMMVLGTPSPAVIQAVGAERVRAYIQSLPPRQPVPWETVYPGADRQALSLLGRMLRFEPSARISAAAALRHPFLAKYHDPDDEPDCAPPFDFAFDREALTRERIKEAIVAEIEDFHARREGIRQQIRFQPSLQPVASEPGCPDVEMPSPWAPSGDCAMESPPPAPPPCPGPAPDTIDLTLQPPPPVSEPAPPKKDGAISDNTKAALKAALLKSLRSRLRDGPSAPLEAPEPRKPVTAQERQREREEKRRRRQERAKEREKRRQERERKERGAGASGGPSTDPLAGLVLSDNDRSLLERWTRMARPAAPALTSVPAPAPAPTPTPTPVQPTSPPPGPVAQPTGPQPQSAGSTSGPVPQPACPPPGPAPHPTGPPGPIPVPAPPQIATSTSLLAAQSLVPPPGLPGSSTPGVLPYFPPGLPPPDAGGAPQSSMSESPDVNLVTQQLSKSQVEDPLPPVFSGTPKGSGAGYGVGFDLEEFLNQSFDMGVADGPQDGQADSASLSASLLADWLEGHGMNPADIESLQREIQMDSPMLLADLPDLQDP
Phosphorylase b kinase regulatory subunit alpha, liver isoform (Homo sapiens), sequence (P46019 whole entry, canonical isoform): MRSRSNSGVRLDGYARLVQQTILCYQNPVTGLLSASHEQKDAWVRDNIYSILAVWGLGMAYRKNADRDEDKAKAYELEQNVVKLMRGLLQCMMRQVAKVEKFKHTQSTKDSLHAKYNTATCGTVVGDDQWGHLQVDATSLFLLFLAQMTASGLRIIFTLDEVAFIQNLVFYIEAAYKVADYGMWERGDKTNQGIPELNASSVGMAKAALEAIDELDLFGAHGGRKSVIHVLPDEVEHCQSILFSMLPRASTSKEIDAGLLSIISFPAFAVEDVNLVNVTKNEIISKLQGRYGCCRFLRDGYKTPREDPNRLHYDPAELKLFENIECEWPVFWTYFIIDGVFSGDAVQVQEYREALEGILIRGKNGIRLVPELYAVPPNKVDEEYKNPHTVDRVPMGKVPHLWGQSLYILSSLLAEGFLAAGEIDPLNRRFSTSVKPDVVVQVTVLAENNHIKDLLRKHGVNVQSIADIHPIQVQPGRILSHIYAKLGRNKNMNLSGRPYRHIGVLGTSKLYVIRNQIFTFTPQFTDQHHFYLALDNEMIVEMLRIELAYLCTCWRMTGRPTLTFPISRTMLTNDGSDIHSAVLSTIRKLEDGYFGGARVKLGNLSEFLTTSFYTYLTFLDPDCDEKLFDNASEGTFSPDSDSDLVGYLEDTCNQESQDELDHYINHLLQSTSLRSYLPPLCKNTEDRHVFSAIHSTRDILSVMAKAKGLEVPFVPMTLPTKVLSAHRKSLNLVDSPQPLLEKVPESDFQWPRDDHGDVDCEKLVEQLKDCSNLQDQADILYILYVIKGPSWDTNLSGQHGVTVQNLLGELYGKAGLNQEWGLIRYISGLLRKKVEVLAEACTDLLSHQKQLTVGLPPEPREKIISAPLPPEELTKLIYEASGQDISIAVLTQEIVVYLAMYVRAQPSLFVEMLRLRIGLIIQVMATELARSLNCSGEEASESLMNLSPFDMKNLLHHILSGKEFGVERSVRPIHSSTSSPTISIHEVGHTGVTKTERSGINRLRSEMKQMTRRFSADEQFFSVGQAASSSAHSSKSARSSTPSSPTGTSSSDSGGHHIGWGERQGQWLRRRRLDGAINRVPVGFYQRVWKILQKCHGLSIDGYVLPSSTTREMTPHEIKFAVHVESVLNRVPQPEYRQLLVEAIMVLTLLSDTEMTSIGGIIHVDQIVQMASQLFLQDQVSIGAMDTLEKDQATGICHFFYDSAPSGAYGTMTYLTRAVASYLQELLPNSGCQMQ
D(4) dopamine receptor (Homo sapiens), sequence (P21917 whole entry): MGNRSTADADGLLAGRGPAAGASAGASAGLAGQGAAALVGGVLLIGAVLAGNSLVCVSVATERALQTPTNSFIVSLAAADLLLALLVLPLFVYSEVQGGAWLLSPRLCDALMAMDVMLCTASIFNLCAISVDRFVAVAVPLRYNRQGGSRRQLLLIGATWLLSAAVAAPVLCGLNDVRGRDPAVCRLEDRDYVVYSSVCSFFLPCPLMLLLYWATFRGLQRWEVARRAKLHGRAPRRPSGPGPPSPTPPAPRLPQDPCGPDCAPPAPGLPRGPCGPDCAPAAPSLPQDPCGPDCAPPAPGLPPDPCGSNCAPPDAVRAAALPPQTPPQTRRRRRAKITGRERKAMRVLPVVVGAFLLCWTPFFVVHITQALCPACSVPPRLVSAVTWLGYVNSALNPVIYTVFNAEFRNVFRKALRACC
Tyrosine-protein kinase ABL1 (Homo sapiens), P00519 [F317I], sequence (P00519 whole entry F317I): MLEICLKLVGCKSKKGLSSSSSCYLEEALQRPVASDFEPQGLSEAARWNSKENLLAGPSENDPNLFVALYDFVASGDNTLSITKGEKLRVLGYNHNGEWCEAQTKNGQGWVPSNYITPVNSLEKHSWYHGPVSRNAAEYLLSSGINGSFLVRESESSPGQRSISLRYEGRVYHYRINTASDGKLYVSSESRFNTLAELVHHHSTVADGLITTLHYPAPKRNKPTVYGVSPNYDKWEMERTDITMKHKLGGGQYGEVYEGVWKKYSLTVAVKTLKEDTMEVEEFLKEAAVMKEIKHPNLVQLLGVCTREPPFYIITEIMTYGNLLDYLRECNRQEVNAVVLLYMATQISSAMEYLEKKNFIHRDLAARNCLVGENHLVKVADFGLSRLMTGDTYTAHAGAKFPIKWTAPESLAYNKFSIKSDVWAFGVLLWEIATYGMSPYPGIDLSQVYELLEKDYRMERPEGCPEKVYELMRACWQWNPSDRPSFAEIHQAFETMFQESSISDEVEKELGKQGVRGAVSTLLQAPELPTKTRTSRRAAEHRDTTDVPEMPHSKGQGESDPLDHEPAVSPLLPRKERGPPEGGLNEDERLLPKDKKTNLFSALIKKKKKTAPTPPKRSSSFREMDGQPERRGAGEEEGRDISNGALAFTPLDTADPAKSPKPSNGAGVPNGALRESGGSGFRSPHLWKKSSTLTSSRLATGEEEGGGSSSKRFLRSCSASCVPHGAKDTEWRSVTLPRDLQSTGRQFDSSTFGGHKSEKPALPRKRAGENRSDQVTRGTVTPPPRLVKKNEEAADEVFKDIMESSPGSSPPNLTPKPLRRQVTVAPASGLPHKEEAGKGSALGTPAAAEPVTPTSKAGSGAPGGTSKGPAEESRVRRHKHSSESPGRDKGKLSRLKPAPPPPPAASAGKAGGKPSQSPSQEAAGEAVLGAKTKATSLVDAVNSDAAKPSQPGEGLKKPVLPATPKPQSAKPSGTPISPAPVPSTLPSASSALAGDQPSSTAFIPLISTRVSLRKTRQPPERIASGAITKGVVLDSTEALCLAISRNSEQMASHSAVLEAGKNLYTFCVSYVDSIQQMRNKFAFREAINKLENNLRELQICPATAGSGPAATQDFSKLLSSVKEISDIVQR

C[C@@H]1CN(c2cc(-c3n[nH]c4ccc(OC5(C)CC5)cc34)ncn2)C[C@H](C)O1 [MLi-2]
inactive: residual activity [1, 27] 91% | residual activity [2, 27] 100% | residual activity [3, 27] 100% | residual activity [4, 27] 70% | residual activity [5, 27] 86% | residual activity [6, 27] 87% | residual activity [7, 27] 80% | residual activity [8, 27] 94% | residual activity [9, 27] 99% | residual activity [10, 27] 84% | residual activity [11, 27] 69% | residual activity [12, 27] 91% | residual activity [13, 27] 92% | residual activity [14, 27] 68% | residual activity [15, 27] 51% | residual activity [16, 27] 73% | residual activity [17, 27] 91% | residual activity [18, 27] 87% | residual activity [19, 27] 100% | residual activity [20, 27] 63% | residual activity [21, 27] 90% | residual activity [22, 27] 97% | residual activity [23, 27] 73% | inhibition [24] -4.87% | residual activity [25, 27] 64% | residual activity [26, 27] 97%

C[C@@H]1CN(c2cc(-c3nn(C)c4ccc(OC5(C)CC5)cc34)ncn2)C[C@H](C)O1 [MLi-2-NC]
inactive: residual activity [1, 28] 68% | residual activity [2, 28] 100% | residual activity [3, 28] 98% | residual activity [4, 28] 100% | residual activity [5, 28] 84% | residual activity [6, 28] 93% | residual activity [7, 28] 75% | residual activity [8, 28] 60% | residual activity [9, 28] 100% | residual activity [10, 28] 99% | residual activity [11, 28] 92% | residual activity [12, 28] 69% | residual activity [13, 28] 76% | residual activity [14, 28] 97% | residual activity [15, 28] 100% | residual activity [16, 28] 82% | residual activity [17, 28] 100% | residual activity [18, 28] 66% | residual activity [19, 28] 100% | residual activity [20, 28] 92% | residual activity [21, 28] 93% | residual activity [22, 28] 100% | residual activity [23, 28] 100% | inhibition [24] -2.65% | residual activity [25, 28] 90% | residual activity [26, 28] 84%
